Patent US4217345A, “3-0-(β-D-Glucuronopyranosyl)-soyasapogenol B” (Otsuka Pharmaceutical Co., Ltd., priority 1978, dated 1980)
Several values for one entry are separate records, joined by “and”; a condition that tells them apart may be missing. Identical values can stand only once.

Key:
[1] = tested on: Nephrotoxin-Type Nephritis; test: Therapeutic effect on nephrotoxin-type nephritis: proteinuria level; type: in vivo, male Wistar rats; conditions: for Proteinuria Level, Average: 3 mg/body i.p. for seven days; for Proteinuria Level: 3 mg/body i.p. once every 24 hours for seven days, individual rat, listed as Compound of Invention
Protocol: Rat nephrotoxin ("NT" for brevity) was obtained as described below.
Rat kidney cortex was homogenized with an equal quantity of physiological saline. The homogenized mixture was mixed with Freund's complete adjuvant (a product of Difco Company) in a volume ratio of 1:1. 2 ml of the resulting mixture was intramuscularly injected into a rabbit (body weight 3,100 g) to immunize the rabbit. A month and a half later, blood was taken from the heart of the rabbit and serum was obtained. The resulting serum was inactivated at 56° C. for 30 minutes, then salted out with a 40% saturated aqueous solution of ammonium sulfate, and fractionated. The γ-globulin (IgG) fraction was collected to obtain NT.
The therapeutic evaluation was carried out using male Wistar rats with a body weight of 150 to 160 g with three replications for each test compound. The test compound was intraperitoneally administered once every 24 hours for seven days. One hour after the administration of the test compound on the third day, the NT was applied. The NT was intravenously injected in an amount of 1 ml at a tail vein of each rat. Physiological saline solution was used as a control.
The proteinuria level (total amount excreted into the urine over a 24 hour period) was measured using turbidometry employing bovine serum albumin as a control by means of sulfosalicylic acid.

[2] = tested on: complement; test: Anticomplementary activity: inhibition of hemolysis of sensitized erythrocytes (EA); type: biochemical, guinea pig; conditions: for Anticomplementary Activity (50% hemolysis inhibitory activity value): guinea pig complement serum diluted 150 times, 60 minutes
Protocol: The anticomplementary activity of the test compounds above was measured and confirmed by the testing method described in Meneki Kagaku (Immuno-Chemistry), Yuichi Yamamura et al., Ed. Asakura Shoten, Tokyo, Japan (1973) pages 830-834. Specifically, a test tube was charged with 0.5 ml of an aqueous dispersion of each of the test compounds, 0.5 ml of sensitized erythrocytes (EA) containing 1×10^8 cells/ml, 1 ml of a 5-fold diluted solution of a Veronal buffer solution containing isotonic gelatin (This 5-fold diluted solution is termed GVB^++ for brevity), and 0.5 ml of complement serum (guinea pig complement) diluted 150 times with the GVB^++. The mixture was maintained for 60 minutes. Then, 5 ml of an ice-fold physiological saline solution was added thereto and the mixture was centrifuged.

[3] = tested on: mice; test: Acute toxicity (LD50) in mice; type: in vivo; conditions: intraperitoneal administration
Protocol: (§1) The actute toxicity (LD50 mg/kg) of the test compounds was determined on mice by intraperitoneal administration in the case of Compound A and intravenous administration in the case of Compound B.

[4] = tested on: Heymann-Type Nephritis; test: Therapeutic effects on Heymann-type nephritis: proteinuria level; type: in vivo, Male Wistar rats; conditions: for Proteinuria Level: individual rat, listed as Compound of Invention
Protocol: Male Wistar rats with a body weight of 180 to 200 g were used in the test. Rat kidney cortex was extracted, and homogenized with an equal quantity by volume of a physiological saline solution. The homogenate was centrifuged at 1,500 G for 1 hour. The supernatant liquid was purified in accordance with the method of T. S. Edgington et al., Journal of Experimental Medicine, 127, 555 (1968), and mixed with Freund's complete adjuvant 37 Ra (a product of Difco Company) in a volume ratio of 0.4:1. The resulting mixture was injected intraperitoneally into isologous rats in an amount of 0.5 ml per rat. And then the same amount of its mixture was administered every 2 weeks until the proteinuria level exceeded 100 mg/day. (This period was about 6 to 8 weeks.)
Each of the test compounds was intraperitoneally administered to the rats affected with Heymann-type nephritis (with a body weight of 300 to 350 g) once a day for 7 days, and then the amount of proteinuria (mg/day) was measured in the same manner as described above. Physiological saline solution was used as a control.

[5] = tested on: hereditary angioneurotic edema; conditions: known complement inhibitors; cited from earlier work
[6] = tested on: plasmin; conditions: cited from earlier work
[7] = tested on: urokinase; conditions: cited from earlier work
[8] = Acute toxicity (LD50) in mice; type: in vivo; conditions: mouse, in vivo, intravenous administration
Protocol: as §1

[9] = tested on: Kallikrein; conditions: cited from earlier work
[10] = tested on: complements; conditions: cited from earlier work
[11] = tested on: thrombin; conditions: cited from earlier work

## CC1(C)C[C@@H](O)[C@]2(C)CC[C@]3(C)C(=CC[C@@H]4[C@@]5(C)CC[C@H](O[C@@H]6O[C@H](C(=O)O)[C@@H](O)[C@H](O)[C@H]6O)[C@@](C)(CO)[C@@H]5CC[C@]43C)[C@@H]2C1 [Compound A, 3-O-(β-D-glucuronopyranosyl)-soyasapogenol B]
[1]; Day 1, average of 3 rats (control 15)
  Proteinuria Level, Average: 3.2 mg/day
[1]; Day 1
  Proteinuria Level: 1.9 mg/day and 5.3 mg/day and 2.5 mg/day
[1]; Day 4, average of 3 rats (control 20)
  Proteinuria Level, Average: 2.3 mg/day
[1]; Day 4
  Proteinuria Level: 1.2 mg/day and 2.9 mg/day and 2.7 mg/day
[1]; Day 7, average of 3 rats (control 23)
  Proteinuria Level, Average: 1.3 mg/day
[1]; Day 7
  Proteinuria Level: 0.9 mg/day and 1.8 mg/day and 1.1 mg/day
[1]; Day 10, average of 3 rats (control 33)
  Proteinuria Level, Average: 9.7 mg/day
[1]; Day 10
  Proteinuria Level: 7 mg/day and 13 mg/day and 9 mg/day
[2]
  anticomplementary activity (in words): potent anticomplementary activity
  Anticomplementary Activity (50% hemolysis inhibitory activity value): 5 µg/mL
[3]
  Acute Toxicity LD50: Above 300 mg/kg
[4]; Before Administration, 3 mg/body i.p. group, average of 3 rats (control 129)
  Proteinuria Level, Average: 123 mg/day
[4]; Before Administration, 3 mg/body i.p. group
  Proteinuria Level: 117 mg/day and 129 mg/day and 123 mg/day
[4]; Day 1, 3 mg/body i.p. once a day for 7 days, average of 3 rats (control 116)
  Proteinuria Level, Average: 112 mg/day
[4]; Day 1, 3 mg/body i.p. once a day for 7 days
  Proteinuria Level: 89 mg/day and 127 mg/day and 119 mg/day
[4]; Day 4, 3 mg/body i.p. once a day for 7 days, average of 3 rats (control 131)
  Proteinuria Level, Average: 58 mg/day
[4]; Day 4, 3 mg/body i.p. once a day for 7 days
  Proteinuria Level: 42 mg/day and 75 mg/day and 58 mg/day
[4]; Day 7, 3 mg/body i.p. once a day for 7 days, average of 3 rats (control 122)
  Proteinuria Level, Average: 28 mg/day
[4]; Day 7, 3 mg/body i.p. once a day for 7 days
  Proteinuria Level: 27 mg/day and 39 mg/day and 18 mg/day
[4]; Day 14, 3 mg/body i.p. once a day for 7 days, average of 3 rats (control 119)
  Proteinuria Level, Average: 3 mg/day
[4]; Day 14, 3 mg/body i.p. once a day for 7 days
  Proteinuria Level: 3 mg/day and 17 mg/day and 9 mg/day
[4]; Day 21, 3 mg/body i.p. once a day for 7 days, average of 3 rats (control 109)
  Proteinuria Level, Average: 9 mg/day
[4]; Day 21, 3 mg/body i.p. once a day for 7 days
  Proteinuria Level: 8 mg/day and 13 mg/day and 7 mg/day

## NCCCCCC(=O)O [epsilon-aminocaproic acid]
[5]
  use in the treatment of hereditary angioneurotic edema: used with success

## CC1(C)[C@@H](O[C@H]2O[C@H](C(=O)O)[C@@H](O)[C@H](O)[C@H]2O[C@@H]2O[C@H](C(=O)O)[C@@H](O)[C@H](O)[C@H]2O)CC[C@]2(C)[C@H]3C(=O)C=C4[C@@H]5C[C@@](C)(C(=O)O)CC[C@]5(C)CC[C@@]4(C)[C@]3(C)CC[C@@H]12 [Compound B, Glycyrrhizin]
[6]
  inhibitory activity against plasmin: inhibitory activity
[2]
  Anticomplementary Activity (50% hemolysis inhibitory activity value): 500-1,000 γ/ml
[7]
  inhibitory activity against urokinase: inhibitory activity
[8]
  LD50: > 300 mg/kg
[9]
  inhibitory activity against Kallikrein: inhibitory activity
[10]
  inhibitory activity against complements: inhibitory activity
[11]
  inhibitory activity against thrombin: inhibitory activity

## NC[C@H]1CC[C@H](C(=O)O)CC1 [tranexamic acid]
[5]
  use in the treatment of hereditary angioneurotic edema: used with success

## Cc1ccc(C(=O)Nc2ccc(S(=O)(=O)O)c3cc(S(=O)(=O)O)cc(S(=O)(=O)O)c23)cc1NC(=O)c1cccc(NC(=O)Nc2cccc(C(=O)Nc3cc(C(=O)Nc4ccc(S(=O)(=O)O)c5cc(S(=O)(=O)O)cc(S(=O)(=O)O)c45)ccc3C)c2)c1 [Suramin Sodium]
[5]
  use in the treatment of hereditary angioneurotic edema: used with success
